For this test, the system named is Mycobacterium tuberculosis starved, CFU count by imaging. Briefly: Starved Mycobacterium tuberculosis, CFU count by imaging, inhibitor dose, dry powder (AID 743163). Conditions: stronger effect = lower value.

For nine compounds, CFU results are on record in PubChem BioAssay AID743163 (Broad Institute, 2013).

Active and inactive are the calls of the source. How the calls were made is not given here.

With `COc1ccc(CNC(=O)Nc2ncc([N+](=O)[O-])s2)cc1`, the CFU was 204000 CFU (CFU at 64 uM, at 64 µM) and 2.15e+06 CFU (at 10 µM).
In the same order, the values of `Cn1c(NC(=O)c2ccccc2)nc2ccccc21` are 0 CFU and 0 CFU.
For the compound `COc1ccc(CCNc2cc(-c3ccccc3)nc3ncnn23)cc1`, the CFU is 2.5e+06 CFU (CFU at 64 uM, at 64 µM) and 2.65e+06 CFU (at 10 µM).
For `c1ccc(-c2n[nH]c(-c3ccccn3)n2)nc1` the same measures were 1.91e+06 CFU and 6.09e+06 CFU.
For `CSc1nsc(SCc2ccc(C(=O)Nc3cccc(C)c3)cc2)n1`, the CFU runs as follows: (CFU at 64 uM, at 64 µM) 12600 CFU; (at 10 µM) 1.1e+06 CFU.
With `CCC(C)n1nnc2c(=O)oc3ccccc3c21` (stereo not drawn), the CFU is 3.22e+06 CFU (CFU at 64 uM, at 64 µM) and 4.71e+06 CFU (at 10 µM).
As for `CCOC(=O)c1cc(COc2c(Cl)cccc2Cl)on1`, the CFU is, setting by setting: (CFU at 64 uM, at 64 µM) 1.11e+06 CFU; (at 10 µM) 3.08e+07 CFU.
Take `CCOc1ccc(OC(=O)c2ccc3c(=O)n4c(nc3c2)CCC4)cc1`: the CFU was 3.25e+07 CFU (CFU at 64 uM, at 64 µM) and 3.2e+07 CFU (inactive) (at 10 µM).
In the case of `COC(=O)C(C)Oc1ccc2cc(-c3ccccc3)c(=O)oc2c1` (stereo not drawn), the CFU by setting is: (CFU at 64 uM, at 64 µM) 4.57e+06 CFU; (at 10 µM) 3.2e+07 CFU (inactive).
